# Measured values published in patent US20180116216A1, “MICROBICIDAL COMPOSITION CONTAINING GLUTARALDEHYDE AND ORTHOPHENYLPHENOL” (Dow Global Technologies LLC, priority 2015, published 2018).
# Like-named read-outs stand apart in the source and are kept apart here.
# System: Bacterial Pool
# Test: Dow time-kill test in pH 7.4 hand dish-washing liquid, with synergy index (Kull)
# Assay type: cell-based
# Conditions: for Concentration required to achieve >=4 Log bacterial counts reduction of tested biocides: 37° C., pool of seven bacteria 1×10^6~1×10^7 CFU/ml in pH 7.4 hand dish-washing liquid, active ingredient basis, unit ppm from b8, not given
SMILES,Concentration required to achieve >=4 Log bacterial counts reduction of tested biocides (24 h) [ppm],"Concentration for >=4 log bacterial kill (Table 4, Bacterial Pool, 24 hours, glutaraldehyde alone (QA) or in the mixture (Qa), read-out: Minimum Inhibitory Concentration (ppm) Glut) [µg/mL]","Minimum Inhibitory Concentration (ppm) Glut (Table 5, Bacterial Pool, 24 hours, glutaraldehyde alone (QA) or in the mixture (Qa)) [ppm]","Concentration for >=4 log bacterial kill (24 h, read-out: Minimum Inhibitory Concentration (ppm) SOPP) [µg/mL]","Minimum Inhibitory Concentration (ppm) SOPP (Table 5, Bacterial Pool, 24 hours, SOPP alone (QB) or in the mixture (Qb)) [ppm]"
"O=CCCCC=O [Glutaraldehyde, Pentane-1,5-dial]",100,100,100,,
"Oc1ccccc1-c1ccccc1.[Na] [SOPP alone, sodium orthophenylphenol]",358.5,,,358,358.5
